Calls of active or inactive are those of the source. The calls are words filed in the database; no cut-off is given here.
How the values were obtained:
Exportin-1 [1] = biological target: T1, Exportin-1 (Homo sapiens, UniProt O14980); experiment: Covalent binding affinity to XPO1 in human Jurkat cells at 0.6 to 123 nM by In-gel fluorescence analysis; assay type: cell-based; details: dose 0.6-123 nM
[2] = biological target: Exportin-1 (Mus musculus) (UniProt Q6P5F9); experiment: In vivo binding affinity to XPO1 in mouse liver at 10 mg/kg, ip qd administered for 5 days by Western blot analysis; assay type: functional, organism-based; details: time 5.0 day
[3] = biological target: Exportin-1 (Mus musculus) (UniProt Q6P5F9); experiment: In vivo binding affinity to XPO1 in mouse spleen at 10 mg/kg, ip qd administered for 5 days by Western blot analysis; assay type: functional, organism-based; details: time 5.0 day
[4] = biological target: Exportin-1 (Mus musculus) (UniProt Q6P5F9); experiment: In vivo binding affinity to XPO1 in mouse kidney at 10 mg/kg, ip qd administered for 5 days by Western blot analysis; assay type: functional, organism-based; details: time 5.0 day
Exportin-1 [5] = biological target: T1, Exportin-1; experiment: Inhibition of XPO1 in PMA/ionomycin-activated human Jurkat cells expressing IL-2 promoter reporter gene assessed as suppression of IL-2 transcriptional activity incubated for 6 hrs by Bright-Glo Luciferase assay; assay type: cell-based
[6] = Metabolic stability in mouse liver microsome assessed as half life; assay type: ADME; details: liver microsomes
Jurkat [7] = experiment: Cytotoxicity against human Jurkat cells assessed as suppression of cell viability incubated for 24 hrs by CellTiter-Glo assay; assay type: functional, cell-based
XPO1 = experiment: Selectivity ratio of EC50 for cytotoxicity against human Jurkat cells assessed as suppression of cell viability to EC50 for inhibition of XPO1 in PMA/ionomycin-activated human Jurkat cells expressing IL-2 promoter reporter gene assessed as suppression of IL-2 transcriptional activity; assay type: toxicity, cell-based; details: read-out: Ratio EC50
[8] = Metabolic stability in mouse liver microsome assessed as intrinsic clearance; assay type: ADME; details: liver microsomes, read-out: CLH
Jurkat [9] = experiment: Cytotoxicity against human Jurkat cells expressing XPO1 C528S mutant assessed as suppression of cell viability up to 100 nM incubated for 24 hrs by CellTiter-Glo assay; assay type: functional, cell-based
Jurkat [10] = experiment: Downregulation of IL-2 mRNA level in PMA/ionomycin-activated human Jurkat cells expressing XPO1 C528S mutant at 10 nM incubated for 6 hrs by RT-qPCR analysis; assay type: functional, cell-based
Exportin-1 [11] = biological target: T1, Exportin-1; experiment: Inhibition of selinexor-alkyne binding to XPO1 at Cys528 in human Jurkat cells up to 10 nM pretreated for 1 hr followed by addition of selinexor-alkyne measured after 1 hr by In-gel fluorescence analysis; assay type: cell-based; details: time 2.0 hrs
Jurkat [12] = experiment: Cytotoxicity against human Jurkat cells expressing XPO1 C528S mutant assessed as suppression of cell viability up to 1000 nM incubated for 24 hrs by CellTiter-Glo assay; assay type: functional, cell-based
Mus musculus [13] = experiment: Anti-inflammatory activity in irradiated BALB/c mouse transplanted with bone marrow/splenic T-cells from C57BL/6 mouse assessed as suppression of CD3 positive T-cell infiltration in host liver at 10 mg/kg, ip qd administered daily for 7 days by IHC analysis; assay type: functional, organism-based; details: time 7.0 day
[14] = Toxicity in mouse assessed as neutropenia at 10 mg/kg, ip administered daily for 5 days by CBC analysis; assay type: organism-based; details: in vivo, 120 h, time 5 day
[15] = Toxicity in irradiated BALB/c mouse transplanted with bone marrow/splenic T-cells from C57BL/6 mouse assessed as drug tolerance at 3 mg/kg, ip administered daily for 21 days; assay type: organism-based; details: in vivo, 504 h, time 21 day
Mus musculus [16] = experiment: Suppression of T-cell activation in irradiated BALB/c mouse transplanted with bone marrow/splenic T-cells from C57BL/6 mouse assessed as downregulation of CSF2 in host spleen at 10 mg/kg, ip administered daily for 7 days by RT-qPCR analysis; assay type: functional, organism-based; details: time 7.0 day
Exportin-1 [17] = biological target: T1, Exportin-1; experiment: Inhibition of selinexor-alkyne binding to XPO1 at Cys528 in human Jurkat cells up to 300 nM pretreated for 1 hr followed by addition of selinexor-alkyne measured after 1 hr by In-gel fluorescence analysis; assay type: cell-based; details: time 2.0 hrs
Mus musculus [18] = experiment: Anti-inflammatory activity in irradiated BALB/c mouse transplanted with bone marrow/splenic T-cells from C57BL/6 mouse assessed as healthy appearance of animal at 1 to 10 mg/kg, ip administered for 7 days; assay type: functional, organism-based; details: dose 1-10 mg/kg, time 7.0 day
Mus musculus [19] = experiment: Anti-inflammatory activity in irradiated BALB/c mouse transplanted with bone marrow/splenic T-cells from C57BL/6 mouse assessed as decrease in CD3 positive CD8 positive T cells in host spleen at 1 to 10 mg/kg, ip administered for 7 days by flow cytometry analysis; assay type: functional, organism-based; details: dose 1-10 mg/kg, time 7.0 day
Jurkat [20] = experiment: Downregulation of IL-2 mRNA level in PMA/ionomycin-activated human Jurkat cells expressing XPO1 C528S mutant at 200 nM incubated for 6 hrs by RT-qPCR analysis; assay type: functional, cell-based
Mus musculus [21] = experiment: Anti-inflammatory activity in irradiated BALB/c mouse transplanted with bone marrow/splenic T-cells from C57BL/6 mouse assessed as improvement in animal survival at 3 mg/kg, ip administered daily for 21 days; assay type: functional, organism-based; details: time 21.0 day
[22] = Drug exposure in mouse administered intraperitoneally; assay type: ADME; details: in vivo, ip
Mus musculus [23] = experiment: Anti-inflammatory activity in irradiated BALB/c mouse transplanted with bone marrow/splenic T-cells from C57BL/6 mouse assessed as active behaviour of animal at 1 to 10 mg/kg, ip administered for 7 days; assay type: functional, organism-based; details: dose 1-10 mg/kg, time 7.0 day
[24] = Toxicity in mouse assessed as leukopenia at 10 mg/kg, ip administered daily for 5 days by CBC analysis; assay type: organism-based; details: in vivo, 120 h, time 5 day
Mus musculus [25] = experiment: Anti-inflammatory activity in irradiated BALB/c mouse transplanted with bone marrow/splenic T-cells from C57BL/6 mouse assessed as suppression of CCL3 mRNA level in host spleen administered as ip dose for 7 days by RT-qPCR analysis; assay type: functional, organism-based; details: dose 10-100 mg/kg, time 7.0 day
Mus musculus [26] = experiment: Anti-inflammatory activity in irradiated BALB/c mouse transplanted with bone marrow/splenic T-cells from C57BL/6 mouse assessed as increase in CD3 positive CD4 positive T cells in host spleen at 1 to 10 mg/kg, ip administered for 7 days by flow cytometry analysis; assay type: functional, organism-based; details: dose 1-10 mg/kg, time 7.0 day
Mus musculus [27] = experiment: Anti-inflammatory activity in irradiated BALB/c mouse transplanted with bone marrow/splenic T-cells from C57BL/6 mouse assessed as suppression of IFNG mRNA level in host spleen administered as ip dose for 7 days by RT-qPCR analysis; assay type: functional, organism-based; details: dose 10-100 mg/kg, time 7.0 day
Mus musculus [28] = experiment: Anti-inflammatory activity in irradiated BALB/c mouse transplanted with bone marrow/splenic T-cells from C57BL/6 mouse assessed as suppression of CSF2 mRNA level in host spleen administered as ip dose for 7 days by RT-qPCR analysis; assay type: functional, organism-based; details: dose 10-100 mg/kg, time 7.0 day
Mus musculus [29] = experiment: Suppression of T-cell activation in irradiated BALB/c mouse transplanted with bone marrow/splenic T-cells from C57BL/6 mouse assessed as downregulation of IFNG in host spleen at 10 mg/kg, ip administered daily for 7 days by RT-qPCR analysis; assay type: functional, organism-based; details: time 7.0 day
Mus musculus [30] = experiment: Anti-inflammatory activity in irradiated BALB/c mouse transplanted with bone marrow/splenic T-cells from C57BL/6 mouse assessed as suppression of TNF mRNA level in host spleen administered as ip dose for 7 days by RT-qPCR analysis; assay type: functional, organism-based; details: dose 10-100 mg/kg, time 7.0 day
Mus musculus [31] = experiment: Anti-inflammatory activity in irradiated BALB/c mouse transplanted with bone marrow/splenic T-cells from C57BL/6 mouse assessed as reduction in animal lethality at 10 mg/kg, ip administered daily measured for 8 days; assay type: functional, organism-based; details: time 8.0 day
[32] = biological target: Exportin-1 (Mus musculus) (UniProt Q6P5F9); experiment: In vivo binding affinity to XPO1 in mouse liver at 1 to 9 mg/kg, ip qd administered for 5 days by Western blot analysis; assay type: functional, organism-based; details: dose 1-9 mg/kg, time 5.0 day
[33] = biological target: Exportin-1 (Mus musculus) (UniProt Q6P5F9); experiment: In vivo binding affinity to XPO1 in mouse spleen at 1 to 9 mg/kg, ip qd administered for 5 days by Western blot analysis; assay type: functional, organism-based; details: dose 1-9 mg/kg, time 5.0 day
Exportin-1 [34] = biological target: T1, Exportin-1; experiment: Covalent binding affinity to XPO1 in human Jurkat cells at 4 to 1000 nM by In-gel fluorescence analysis; assay type: cell-based; details: dose 4-1000 nM
[35] = biological target: Exportin-1 (Mus musculus) (UniProt Q6P5F9); experiment: In vivo binding affinity to XPO1 in mouse kidney at 1 to 9 mg/kg, ip qd administered for 5 days by Western blot analysis; assay type: functional, organism-based; details: dose 1-9 mg/kg, time 5.0 day
Jurkat [36] = experiment: Cytotoxicity against human Jurkat cells expressing XPO1 C528S mutant assessed as suppression of cell viability up to 10000 nM incubated for 24 hrs by CellTiter-Glo assay; assay type: functional, cell-based
Jurkat [37] = experiment: Downregulation of IL-2 mRNA level in PMA/ionomycin-activated human Jurkat cells expressing XPO1 C528S mutant at 100 nM incubated for 6 hrs by RT-qPCR analysis; assay type: functional, cell-based

T1 sequence (O14980 whole entry): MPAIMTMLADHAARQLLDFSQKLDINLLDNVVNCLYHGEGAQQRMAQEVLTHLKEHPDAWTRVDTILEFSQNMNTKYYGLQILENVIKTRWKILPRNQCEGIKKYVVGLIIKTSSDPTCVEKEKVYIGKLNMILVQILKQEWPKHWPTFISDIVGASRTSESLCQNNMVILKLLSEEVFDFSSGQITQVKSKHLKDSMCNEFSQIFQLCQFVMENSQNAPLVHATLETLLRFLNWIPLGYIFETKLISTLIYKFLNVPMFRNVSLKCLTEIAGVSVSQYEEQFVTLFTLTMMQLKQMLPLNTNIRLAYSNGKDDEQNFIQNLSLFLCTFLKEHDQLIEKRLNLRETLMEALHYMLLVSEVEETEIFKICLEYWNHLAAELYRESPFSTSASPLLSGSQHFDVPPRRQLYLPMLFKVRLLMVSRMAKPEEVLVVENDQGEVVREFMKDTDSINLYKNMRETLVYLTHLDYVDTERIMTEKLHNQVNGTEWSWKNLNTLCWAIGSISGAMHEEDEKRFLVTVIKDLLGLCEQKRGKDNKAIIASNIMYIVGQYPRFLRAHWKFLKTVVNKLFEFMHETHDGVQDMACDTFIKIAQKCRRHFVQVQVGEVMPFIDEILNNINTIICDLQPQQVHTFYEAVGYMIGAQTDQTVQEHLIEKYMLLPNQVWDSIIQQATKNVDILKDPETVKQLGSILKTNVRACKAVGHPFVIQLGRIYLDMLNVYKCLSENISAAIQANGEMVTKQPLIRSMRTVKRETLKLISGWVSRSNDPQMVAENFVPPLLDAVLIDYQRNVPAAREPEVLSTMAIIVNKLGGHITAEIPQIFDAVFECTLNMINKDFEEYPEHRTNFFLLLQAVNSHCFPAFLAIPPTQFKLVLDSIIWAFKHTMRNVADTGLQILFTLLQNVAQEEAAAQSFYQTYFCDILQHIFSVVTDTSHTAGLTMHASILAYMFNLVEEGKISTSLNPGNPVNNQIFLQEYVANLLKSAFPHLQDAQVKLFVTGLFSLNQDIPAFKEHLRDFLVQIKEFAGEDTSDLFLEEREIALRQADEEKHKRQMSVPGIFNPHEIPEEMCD
Exportin-1 (Mus musculus), sequence (Q6P5F9 whole entry): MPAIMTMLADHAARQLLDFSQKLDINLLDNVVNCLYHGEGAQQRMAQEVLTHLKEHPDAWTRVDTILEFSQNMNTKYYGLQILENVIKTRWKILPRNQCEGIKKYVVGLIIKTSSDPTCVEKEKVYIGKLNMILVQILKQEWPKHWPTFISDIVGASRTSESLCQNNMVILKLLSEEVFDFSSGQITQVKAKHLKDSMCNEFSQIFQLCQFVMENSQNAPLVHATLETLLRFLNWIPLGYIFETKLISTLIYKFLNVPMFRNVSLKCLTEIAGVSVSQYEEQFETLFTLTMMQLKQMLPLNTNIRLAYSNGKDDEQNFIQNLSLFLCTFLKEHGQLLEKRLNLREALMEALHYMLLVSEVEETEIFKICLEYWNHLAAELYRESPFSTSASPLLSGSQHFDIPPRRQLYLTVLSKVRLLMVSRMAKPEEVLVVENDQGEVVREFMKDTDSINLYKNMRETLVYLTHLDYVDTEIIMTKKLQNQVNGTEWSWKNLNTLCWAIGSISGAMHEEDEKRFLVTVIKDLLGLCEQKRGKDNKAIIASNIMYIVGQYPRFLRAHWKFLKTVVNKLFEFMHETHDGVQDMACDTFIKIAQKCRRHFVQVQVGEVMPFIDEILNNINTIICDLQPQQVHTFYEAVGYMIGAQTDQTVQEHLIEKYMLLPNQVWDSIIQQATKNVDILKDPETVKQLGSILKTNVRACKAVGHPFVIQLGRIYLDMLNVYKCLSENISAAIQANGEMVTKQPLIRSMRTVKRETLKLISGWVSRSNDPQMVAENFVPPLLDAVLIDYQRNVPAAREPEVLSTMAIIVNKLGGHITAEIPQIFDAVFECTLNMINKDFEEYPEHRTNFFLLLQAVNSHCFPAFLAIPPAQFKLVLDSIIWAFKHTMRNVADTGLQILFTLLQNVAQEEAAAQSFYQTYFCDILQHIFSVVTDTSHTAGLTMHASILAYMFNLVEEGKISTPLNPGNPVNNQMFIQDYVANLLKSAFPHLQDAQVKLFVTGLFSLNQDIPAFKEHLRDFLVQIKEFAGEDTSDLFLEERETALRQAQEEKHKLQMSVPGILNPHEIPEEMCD

## C#Cc1cc(NN2C(=O)C=C(C)C2=O)cc(C(F)(F)F)c1
Exportin-1 [1]
  Activity: Active
[2]
  Activity: Active
[3]
  Activity: Active
[4]
  Activity: Active

## CC1=CC(=O)N(Nc2ccc(C(F)(F)F)c(N3CC4CC4C3)n2)C1=O (centres undefined)
Exportin-1 [5]
  EC50: 1 nM
[6]
  half-life: < 10 min
Jurkat [7]
  EC50: 30.4 nM
XPO1
  selectivity ratio: 30.4
[8]
  microsomal CLint: > 139 µL/min/mg
Jurkat [9]
  Activity: Active
Jurkat [10]
  Activity: inactive
Exportin-1 [11]
  inhibition: Active

## CC1=CC(=O)N(Nc2nc(C(F)(F)F)nn3cccc23)C1=O
Jurkat [12]
  Activity: inactive
Exportin-1 [5]
  EC50: 31 nM
Mus musculus [13]
  Activity: Active
[14]
  Activity: Non-toxic
[15]
  Activity: Non-toxic
Mus musculus [16]
  Activity: Active; Compound Showed Stronger Effect Than Sp100030
Exportin-1 [17]
  inhibition: Active
[6]
  half-life: > 60 min
Mus musculus [18]
  Activity: Active
Mus musculus [19]
  Activity: Active
Jurkat [20]
  Activity: inactive
Jurkat [7]
  EC50: 270 nM
Mus musculus [21]
  Activity: Active
XPO1
  selectivity ratio: 8.7
[8]
  microsomal CLint: < 23 µL/min/mg
[22]
  Drug uptake: Active
Mus musculus [23]
  Activity: Active
[24]
  Activity: Non-toxic
Mus musculus [25]
  Activity: Dose-dependent-effect
Mus musculus [26]
  Activity: Active
Mus musculus [27]
  Activity: Dose-dependent-effect
Mus musculus [28]
  Activity: Dose-dependent-effect
Mus musculus [29]
  Activity: Active; Compound Showed Stronger Effect Than Sp100030
Mus musculus [30]
  Activity: Dose-dependent-effect

## O=C(/C=C\n1cnc(-c2cc(C(F)(F)F)cc(C(F)(F)F)c2)n1)NNc1cnccn1 [SELINEXOR]
[14]
  Activity: Toxic
[24]
  Activity: Toxic
Mus musculus [31]
  Activity: inactive

## C#Cc1cc2c(NN3C(=O)C=C(C)C3=O)nc(C(F)(F)F)nn2c1
[32]
  Activity: Active
[33]
  Activity: Active
Exportin-1 [34]
  Activity: Active
[35]
  Activity: Active

## CC1=CC(=O)N(Nc2ccc(C(F)(F)F)c(N(C)C)n2)C1=O
Exportin-1 [5]
  EC50: 8.3 nM
Jurkat [7]
  EC50: 696 nM
Jurkat [36]
  Activity: Active
XPO1
  selectivity ratio: 83.9
Jurkat [37]
  Activity: inactive
Exportin-1 [11]
  inhibition: Active
